Experimental data from patent US9273028B2, “Heterocyclic tyrosine kinase inhibitors” (Biogen MA Inc., priority 2010, dated 2016).

biological target: T1, BTK (Homo sapiens, UniProt Q06187); assay: In vitro BTK kinase assay (BTK-POLYGAT-LS); assay type: biochemical; details: IC50 (10 uM ATP)
T1 construct: purchased Upstate 14-552
Procedure: In vitro BTK Kinase Assay
The purpose of the BTK in vitro assay is to determine compound potency against BTK through the measurement of IC50. […] For a typical assay, a 24 μL aliquot of a ATP/peptide master mix (final concentration; ATP 10 μM, polyGAT 100 nM) in kinase buffer (10 mM Tris-HCl pH 7.5, 10 mM MgCl2, 200 μM Na3PO4, 5 mM DTT, 0.01% Triton X-100, and 0.2 mg/ml casein) is added to each well. […] The assay is incubated for 30 minutes before being stopped with 28 μL of a 50 mM EDTA solution. […] The plate is covered and incubated for 45 minutes at room temperature.

T1 sequence (Q06187 whole entry): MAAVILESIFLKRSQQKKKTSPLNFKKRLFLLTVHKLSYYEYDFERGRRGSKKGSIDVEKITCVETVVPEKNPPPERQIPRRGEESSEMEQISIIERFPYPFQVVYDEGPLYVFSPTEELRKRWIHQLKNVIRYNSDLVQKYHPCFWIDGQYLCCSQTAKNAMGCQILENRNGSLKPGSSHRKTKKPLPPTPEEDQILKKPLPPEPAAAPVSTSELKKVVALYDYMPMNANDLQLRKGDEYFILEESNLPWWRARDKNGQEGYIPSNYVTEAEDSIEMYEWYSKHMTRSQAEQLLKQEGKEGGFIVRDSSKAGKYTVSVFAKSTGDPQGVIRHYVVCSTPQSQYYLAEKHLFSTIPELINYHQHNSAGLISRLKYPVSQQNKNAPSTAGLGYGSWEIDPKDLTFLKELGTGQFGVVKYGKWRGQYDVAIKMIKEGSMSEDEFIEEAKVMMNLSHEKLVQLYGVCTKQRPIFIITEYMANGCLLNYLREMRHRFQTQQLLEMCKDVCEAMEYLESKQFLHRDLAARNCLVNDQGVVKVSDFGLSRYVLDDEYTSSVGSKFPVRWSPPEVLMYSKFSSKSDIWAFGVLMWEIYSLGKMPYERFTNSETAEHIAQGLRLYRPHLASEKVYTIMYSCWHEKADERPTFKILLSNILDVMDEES

IC50 [µM] | Structure (SMILES)
1 to 10 | O=C(CNc1cc(Cl)cc(Cl)c1)N1CCCC(N(CCN2CCCCC2)c2ncnc3[nH]ccc23)C1 (centres unmarked) [Compound 88]
> 10 | O=C(CNc1cc(Cl)cc(Cl)c1)N1CCCC(N(CCc2ccccc2)c2ncnc3[nH]ccc23)C1 (centres unmarked) [Compound 97]
< 0.1 | C[C@@H]1C[C@H](N(C)c2ncnc3[nH]ccc23)CN(C(=O)CNc2cc(Cl)cc(Cl)c2)C1 [Compound 98]
< 0.1 | CCC[C@@H](Nc1cc(Cl)cc(Cl)c1)C(=O)N1CCC2CCN(c3ncnc4[nH]ccc34)C2C1 (some centres unmarked) [Compound 101]
< 0.1 | CCC[C@@H](Nc1cccc(Cl)c1)C(=O)N1CCC2CCN(c3ncnc4[nH]ccc34)C2C1 (some centres unmarked) [Compound 102]
< 0.1 | C[C@@H]1C[C@H](Nc2ncnc3[nH]ncc23)CN(C(=O)CNc2cc(Cl)cc(Cl)c2)C1 [Compound 103]
< 0.1 | CCCN(c1ncnc2[nH]ccc12)C1CCCN(C(=O)CNc2cc(Cl)cc(Cl)c2)C1 (centres unmarked) [Compound 106]
0.1 to 0.999 | CCN(c1ncnc2[nH]ccc12)C1CCCN(C(=O)CNc2cc(Cl)cc(Cl)c2)C1 (centres unmarked) [Compound 108]
> 10 | CC(=O)Nc1cc(N[C@H]2CCCN(C(=O)CNc3cc(Cl)cc(Cl)c3)C2)ncn1 [Compound 109]
0.1 to 0.999 | Nc1ncnc(N[C@H]2CCCN(C(=O)CNc3cc(Cl)cc(Cl)c3)C2)c1F [Compound 110]
< 0.1 | O=C(CNc1cc(Cl)cc(Cl)c1)N1CCC2CCN(c3ncnc4[nH]cnc34)C2C1 (centres unmarked) [Compound 111]
< 0.1 | Nc1ncnc(N2CCC3CCN(C(=O)CNc4cc(Cl)cc(Cl)c4)CC32)c1F (centres unmarked) [Compound 112]
> 10 | O=C(CNc1cc(Cl)cc(Cl)c1)N1CCC[C@H](Nc2ncnc3scnc23)C1 [Compound 115]
> 10 | CN(c1ncnc(N)c1C#N)[C@H]1CCCN(C(=O)CNc2cc(Cl)cc(Cl)c2)C1 [Compound 116]
> 10 | CC1CCCC(NCC(=O)N2CCC[C@H](Nc3ncnc4[nH]ccc34)C2)C1 (some centres unmarked) [Compound 117]
> 10 | CCCN(c1ncnc2[nH]ccc12)[C@H]1CCCN(C(=O)CNc2cc(Cl)cc(Cl)c2)C1 [Compound 118]
> 10 | O=C(CNc1cc(Cl)cc(Cl)c1)N1CCC[C@H](N(CCc2ccccc2)c2ncnc3[nH]ccc23)C1 [Compound 119]
> 10 | O=CNc1cnc(Br)cc1N(C=O)[C@H]1CCCN(C(=O)CNc2cc(Cl)cc(Cl)c2)C1 [Compound 120]
> 10 | O=CNc1cnc(Br)cc1N[C@H]1CCCN(C(=O)CN(C=O)c2cc(Cl)cc(Cl)c2)C1 [Compound 121]
0.1 to 0.999 | O=C(CNc1cc(Cl)cc(Cl)c1)N1C[C@@H](Nc2ncnc3[nH]ccc23)C[C@@H](C(F)(F)F)C1 [Compound 122]
> 10 | CN(c1ncnc(N)c1C(N)=O)[C@H]1CCCN(C(=O)CNc2cc(Cl)cc(Cl)c2)C1 [Compound 125]
> 10 | CCN(c1ncnc2[nH]ccc12)[C@H]1CCCN(C(=O)CNc2cc(Cl)cc(Cl)c2)C1 [Compound 126]
1 to 10 | CN(c1ncnc2[nH]ccc12)[C@@H]1CCN(C(=O)CNc2cc(Cl)cc(Cl)c2)C1 [Compound 127]
> 10 | CC(=O)Nc1cc(N(C)[C@H]2CCCN(C(=O)CNc3cc(Cl)cc(Cl)c3)C2)ncn1 [Compound 128]
> 10 | CN(c1ncnc2c1CCC(=O)N2)[C@H]1CCCN(C(=O)CNc2cc(Cl)cc(Cl)c2)C1 [Compound 129]

IC50 [µM] | Structure (SMILES)
> 10 | CN(c1ncnc2[nH]ncc12)[C@H]1CCN(C(=O)CNc2cc(Cl)cc(Cl)c2)C1 [Compound 130]
1 to 10 | CN(c1ncnc2[nH]ncc12)[C@@H]1CCN(C(=O)CNc2cc(Cl)cc(Cl)c2)C1 [Compound 131]
> 10 | CN(c1ncnc2[nH]ccc12)[C@H]1CCN(C(=O)CNc2cc(Cl)cc(Cl)c2)C1 [Compound 132]
1 to 10 | Nc1cc(N[C@H]2CCCN(C(=O)CNc3cc(Cl)cc(Cl)c3)C2)ncn1 [Compound 133]
> 10 | Nc1ncnc(N[C@H]2CCCN(C(=O)CNc3cc(Cl)cc(Cl)c3)C2)c1Cl [Compound 134]
> 10 | O=C(CNc1cc(Cl)cc(Cl)c1)N1CCC[C@H](Nc2cc(Br)ncc2[N+](=O)[O-])C1 [Compound 136]
> 10 | O=C(CNc1cc(Cl)cc(Cl)c1)N1CCC(c2ccccc2)C(Nc2ncnc3[nH]ccc23)C1 (centres unmarked) [Compound 137]
> 10 | O=C(CNc1ccccc1S(=O)(=O)N1CCCCC1)N1CCC[C@H](Nc2ncnc3[nH]ccc23)C1 [Compound 138]
> 10 | CC1CCC(NCC(=O)N2CCC[C@H](Nc3ncnc4[nH]ccc34)C2)CC1 (some centres unmarked) [Compound 139]
> 10 | CC1CCCCC1NCC(=O)N1CCC[C@H](Nc2ncnc3[nH]ccc23)C1 (some centres unmarked) [Compound 140]
0.1 to 0.999 | CN(c1ncnc2[nH]ncc12)C1CC2CC1N(C(=O)CNc1cc(Cl)cc(Cl)c1)C2 (centres unmarked) [Compound 141]
0.1 to 0.999 | CN(c1ncnc2[nH]ccc12)[C@H]1CCCN(C(=O)CNc2cc(Cl)cc(C(F)(F)F)c2)C1 [Compound 142]
> 10 | CN(c1cc(N)ncn1)[C@H]1CCCN(C(=O)CNc2cc(Cl)cc(Cl)c2)C1 [Compound 144]
1 to 10 | CN(c1ncnc2[nH]ncc12)[C@H]1CCCN(C(=O)CNc2cc(Cl)cc(C(F)(F)F)c2)C1 [Compound 145]
1 to 10 | CN(c1ncnc2[nH]ncc12)[C@H]1CCCN(C(=O)CNc2cc(F)cc(Cl)c2)C1 [Compound 146]
> 10 | O=C(CNc1cc(Cl)cc(Cl)c1)N1CC[C@H](Nc2ncnc3[nH]ncc23)C1 [Compound 147]
> 10 | O=C(CNC1CCCC1)N1CCC[C@H](Nc2ncnc3[nH]ccc23)C1 [Compound 149]
> 10 | CN(c1ncnc2[nH]ncc12)[C@H]1CCCN(C(=O)CNc2cc(C(F)(F)F)cc(C(F)(F)F)c2)C1 [Compound 150]
0.1 to 0.999 | CN(c1ncnc2[nH]cnc12)[C@H]1CCCN(C(=O)CNc2cc(Cl)cc(Cl)c2)C1 [Compound 151]
> 10 | O=C(CNc1cc(Cl)cc(Cl)c1)N1CC[C@H](Nc2ncnc3[nH]ccc23)C1 [Compound 152]
> 10 | O=C(CNc1cc(Cl)cc(Cl)c1)N1CC[C@@H](Nc2ncnc3[nH]ncc23)C1 [Compound 153]
> 10 | O=C1CCc2c(ncnc2N[C@H]2CCCN(C(=O)CNc3cc(Cl)cc(Cl)c3)C2)N1 [Compound 154]
> 10 | O=C(CNc1cc(Cl)cc(Cl)c1)N1CC[C@@H](Nc2ncnc3[nH]ccc23)C1 [Compound 155]
1 to 10 | O=C1CCc2c(ncnc2N2CCC3CCN(C(=O)CNc4cc(Cl)cc(Cl)c4)CC32)N1 (centres unmarked) [Compound 156]
> 10 | Nc1nc(N[C@H]2CCCN(C(=O)CNc3cc(Cl)cc(Cl)c3)C2)c2cc[nH]c2n1 [Compound 157]

IC50 [µM] | Structure (SMILES)
> 10 | CCn1cnc2cnc(N[C@H]3CCCN(C(=O)CNc4cc(Cl)cc(Cl)c4)C3)cc21 [Compound 158]
< 0.1 | Nc1cc(N2CCC3CCN(C(=O)CNc4cc(Cl)cc(Cl)c4)CC32)ncn1 (centres unmarked) [Compound 159]
> 10 | N#Cc1c(N)ncnc1N[C@H]1CCCN(C(=O)CNc2cc(Cl)cc(Cl)c2)C1 [Compound 161]
> 10 | O=C(CNC1CCCCC1)N1CCC[C@H](Nc2ncnc3[nH]ccc23)C1 [Compound 162]
1 to 10 | CN(c1ncnc2[nH]ccc12)C1CC2CC1N(C(=O)CNc1cc(Cl)cc(Cl)c1)C2 (centres unmarked) [Compound 163]
> 10 | Nc1nccc(N[C@H]2CCCN(C(=O)CNc3cc(Cl)cc(Cl)c3)C2)n1 [Compound 164]
0.1 to 0.999 | CN(c1ncnc2[nH]ccc12)[C@@H]1CCCN(C(=O)CNc2cc(F)cc(Cl)c2)C1 [Compound 165]
> 10 | CN(c1ncnc2[nH]ccc12)[C@@H]1CCCN(C(=O)CNc2cc(C(F)(F)F)cc(C(F)(F)F)c2)C1 [Compound 166]
> 10 | COc1c(N)ncnc1N[C@H]1CCCN(C(=O)CNc2cc(Cl)cc(Cl)c2)C1 [Compound 168]
< 0.1 | O=C(CNc1cc(Cl)cc(Cl)c1)N1CCC[C@H](Nc2ccnc3[nH]ccc23)C1 [Compound 169]
< 0.1 | O=C(CNc1cc(Cl)cc(Cl)c1)N1CC2CC(Nc3ncnc4[nH]ncc34)C1C2 (centres unmarked) [Compound 171]
0.1 to 0.999 | O=C(CNc1cc(Cl)cc(Cl)c1)N1CCC[C@H](Nc2ncnc3[nH]cnc23)C1 [Compound 175]
1 to 10 | O=C(CNc1cc(F)cc(C(F)(F)F)c1)N1CCC[C@H](Nc2ncnc3[nH]ncc23)C1 [Compound 177]
1 to 10 | O=C(CNc1cc(Cl)cc(C(F)(F)F)c1)N1CCC[C@H](Nc2ncnc3[nH]ncc23)C1 [Compound 178]
1 to 10 | O=C(CNc1ccccc1)N1CCCC(Nc2ncnc3[nH]ncc23)C1 (centres unmarked) [Compound 179]
> 10 | O=C(CNc1cccc(F)c1)N1CCC[C@H](Nc2ncnc3[nH]ncc23)C1 [Compound 182]
> 10 | O=C(CNc1ccc(Cl)cc1)N1CCC[C@H](Nc2ncnc3[nH]ncc23)C1 [Compound 184]
1 to 10 | O=C(CNc1cc(C(F)(F)F)cc(C(F)(F)F)c1)N1CCC[C@H](Nc2ncnc3[nH]ncc23)C1 [Compound 185]
> 10 | O=C(CNc1cc(C(F)(F)F)cc(C(F)(F)F)c1)N1CCC[C@H](Nc2ncnc3[nH]ncc23)C1 [Compound 186]
1 to 10 | O=C(CNc1cc(C(F)(F)F)cc(C(F)(F)F)c1)N1CCC[C@H](Nc2ncnc3[nH]ccc23)C1 [Compound 187]
1 to 10 | O=C(CNc1cccc(F)c1)N1CCC[C@H](Nc2ncnc3[nH]ccc23)C1 [Compound 188]
0.1 to 0.999 | O=C(CNc1cc(Cl)cc(Cl)c1)N1CC(Nc2ncnc3[nH]ccc23)Cc2ccccc21 (centres unmarked) [Compound 190]
0.1 to 0.999 | O=C(CNc1cc(Cl)cc(Cl)c1)N1CC(Nc2ncnc3[nH]ncc23)Cc2ccccc21 (centres unmarked) [Compound 191]
> 10 | O=C(CNc1ccc(F)cc1)N1CCC[C@H](Nc2ncnc3[nH]ccc23)C1 [Compound 193]
